Reference: patent US8435978B2, “Substituted sulfonamide compounds” (Gruenenthal GmbH, priority 2006, dated 2013)

Columns and labels:
human B1R receptor = biological target: T1, human B1R receptor (Homo sapiens, UniProt P46663); test: Functional study on the bradykinin receptor 1 (B1R), FLIPR Ca2+ assay, hB1R cells; assay type: cell-based; conditions: test substance 10 μM; hB1R CHO K1 cells; agonist Lys-Des-Arg9-bradykinin 0.5 nM; % inhibition compared with the maximum achievable inhibition
T1 construct: host or cells: CHO K1 cells (Chinese hamster ovary), stably transfected
T1 sequence (P46663 1-353): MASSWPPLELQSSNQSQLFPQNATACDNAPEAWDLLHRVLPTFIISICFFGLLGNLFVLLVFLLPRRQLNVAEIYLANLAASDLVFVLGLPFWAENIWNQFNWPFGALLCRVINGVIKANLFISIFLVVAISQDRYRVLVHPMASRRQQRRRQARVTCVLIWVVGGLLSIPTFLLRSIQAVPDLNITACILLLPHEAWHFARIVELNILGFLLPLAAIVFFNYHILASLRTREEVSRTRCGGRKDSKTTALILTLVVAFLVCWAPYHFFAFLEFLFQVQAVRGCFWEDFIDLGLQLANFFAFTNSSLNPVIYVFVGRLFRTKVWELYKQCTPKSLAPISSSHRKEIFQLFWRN
In short: (§1)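 Readout: peak Fluo-4 Ca2+ fluorescence, FLIPR. Stable CHO K1 hB1R or rB1R cells; cpd 10 μM, 10 min preincubation, then agonist (hB1R: Lys-Des-Arg9-BK 0.5 nM; rB1R: Des-Arg9-BK 100 nM). Value = % inhibition relative to maximal achievable inhibition.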

B1R receptor of the rat = biological target: T2, B1R receptor of the rat (Rattus norvegicus, UniProt P97583); test: Functional study on the bradykinin receptor 1 (B1R), FLIPR Ca2+ assay, rB1R cells; assay type: cell-based; conditions: test substance 10 μM; rB1R CHO K1 cells; agonist Des-Arg9-bradykinin 100 nM; % inhibition compared with the maximum achievable inhibition
T2 construct: host or cells: CHO K1 cells (Chinese hamster ovary), stably transfected
T2 sequence (P97583 1-337): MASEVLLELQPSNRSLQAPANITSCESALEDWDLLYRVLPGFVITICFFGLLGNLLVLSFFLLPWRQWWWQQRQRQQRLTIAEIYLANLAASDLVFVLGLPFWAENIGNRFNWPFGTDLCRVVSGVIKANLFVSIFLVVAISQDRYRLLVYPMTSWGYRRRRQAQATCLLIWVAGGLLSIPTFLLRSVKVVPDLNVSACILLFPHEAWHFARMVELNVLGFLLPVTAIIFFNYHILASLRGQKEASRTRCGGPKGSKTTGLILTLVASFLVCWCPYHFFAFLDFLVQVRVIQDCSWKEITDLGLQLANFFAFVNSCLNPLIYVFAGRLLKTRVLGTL
In short: as §1

Q: For COc1cc(C)c(S(=O)(=O)N2CCCCC2COCC(=O)N2CCN(C3CCN(C)CC3)CC2)c(C)c1 (centres unmarked) [Example 8, 2-[1-(4-methoxy-2,6-dimethyl-phenylsulfonyl)-piperidin-2-ylmethoxy]-1-[4-(1-methyl-piperidin-4-yl)-piperazin-1-yl]-ethanone], which “B1R Antagonism, human [10 μM] % Inhibition” value (human B1R receptor) is on record?
A: 101.66%

Q: What about the “B1R Antagonism, rat [10 μM] % Inhibition” value (B1R receptor of the rat) of the same molecule?
A: 106.6%
